Experimental data reported in patent publication US20210053957A1, “HERBICIDAL COMPOUNDS” (SYNGENTA PARTICIPATIONS AG, priority 2018, published 2021).

Tests used:
Test in all cases: Post-emergence efficacy, glasshouse spray test
Format in all cases: in vivo
[1] = test system: Amaranthus palmeri (AMAPA); settings: Application Rate 500 g/Ha, evaluated after 13 days; for pest or weed control at 500 g/ha: Amaranthus palmeri, post-emergence, 312 h, read-out: Control of weed species after post-emergence application, AMAPA (100=total damage to plant; 0=no damage to plant)
Outline: (§1)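 Post-emergence glasshouse test on 14-day-old potted plants. Rating 0–100 plant damage at 13 days after application.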

[2] = test system: Chenopodium album (CHEAL); settings: Application Rate 500 g/Ha, evaluated after 13 days; for pest or weed control at 500 g/ha: Chenopodium album, post-emergence, 312 h, read-out: Control of weed species after post-emergence application, CHEAL (100=total damage to plant; 0=no damage to plant)
Outline: as §1

[3] = test system: Digitaria sanguinalis (DIGSA); settings: Application Rate 500 g/Ha, evaluated after 13 days; for pest or weed control at 500 g/ha: Digitaria sanguinalis, post-emergence, 312 h, read-out: Control of weed species after post-emergence application, DIGSA (100=total damage to plant; 0=no damage to plant)
Outline: as §1

[4] = test system: Echinochloa crus-galli (ECHCG); settings: Application Rate 500 g/Ha, evaluated after 13 days; for pest or weed control at 500 g/ha: Echinochloa crus-galli, post-emergence, 312 h, read-out: Control of weed species after post-emergence application, ECHCG (100=total damage to plant; 0=no damage to plant)
Outline: as §1

Eleusine indica (ELEIN) = settings: Application Rate 500 g/Ha, evaluated after 13 days; for pest or weed control at 500 g/ha: Eleusine indica, post-emergence, 312 h, read-out: Control of weed species after post-emergence application, ELEIN (100=total damage to plant; 0=no damage to plant)
Outline: as §1

[5] = test system: Euphorbia heterophylla (EPHHL); settings: Application Rate 500 g/Ha, evaluated after 13 days; for pest or weed control at 500 g/ha: Euphorbia heterophylla, post-emergence, 312 h, read-out: Control of weed species after post-emergence application, EPHHL (100=total damage to plant; 0=no damage to plant)
Outline: as §1

[6] = test system: Ipomoea hederacea (IPOHE); settings: Application Rate 500 g/Ha, evaluated after 13 days; for pest or weed control at 500 g/ha: Ipomoea hederacea, post-emergence, 312 h, read-out: Control of weed species after post-emergence application, IPOHE (100=total damage to plant; 0=no damage to plant)
Outline: as §1

Lolium perenne (LOLPE) = settings: Application Rate 500 g/Ha, evaluated after 13 days; for pest or weed control at 500 g/ha: Lolium perenne, post-emergence, 312 h, read-out: Control of weed species after post-emergence application, LOLPE (100=total damage to plant; 0=no damage to plant)
Outline: as §1

Setaia fabei (SETFA) = settings: Application Rate 500 g/Ha, evaluated after 13 days; for pest or weed control at 500 g/ha: Setaria faberi, post-emergence, 312 h, read-out: Control of weed species after post-emergence application, SETFA (100=total damage to plant; 0=no damage to plant)
Outline: as §1

Structure (SMILES) | pest or weed control at 500 g/ha [1] [%] | pest or weed control at 500 g/ha [2] [%] | pest or weed control at 500 g/ha [3] [%] | pest or weed control at 500 g/ha [4] [%] | pest or weed control at 500 g/ha (Eleusine indica (ELEIN)) [%] | pest or weed control at 500 g/ha [5] [%] | pest or weed control at 500 g/ha [6] [%] | pest or weed control at 500 g/ha (Lolium perenne (LOLPE)) [%] | pest or weed control at 500 g/ha (Setaia fabei (SETFA)) [%] | Control of weed species after post-emergence application, AMAPA (100=total damage to plant; 0=no damage to plant) [1] | Control of weed species after post-emergence application, CHEAL (100=total damage to plant; 0=no damage to plant) [2] | Control of weed species after post-emergence application, DIGSA (100=total damage to plant; 0=no damage to plant) [3] | Control of weed species after post-emergence application, ECHCG (100=total damage to plant; 0=no damage to plant) [4] | Control of weed species after post-emergence application, ELEIN (100=total damage to plant; 0=no damage to plant) (Eleusine indica (ELEIN)) | Control of weed species after post-emergence application, EPHHL (100=total damage to plant; 0=no damage to plant) [5] | Control of weed species after post-emergence application, IPOHE (100=total damage to plant; 0=no damage to plant) [6] | Control of weed species after post-emergence application, LOLPE (100=total damage to plant; 0=no damage to plant) (Lolium perenne (LOLPE)) | Control of weed species after post-emergence application, SETFA (100=total damage to plant; 0=no damage to plant) (Setaia fabei (SETFA))
O=S(=O)([O-])OCC[n+]1ccc(-c2nccs2)cn1 [Compound A113] | 100 | 60 | 70 | 70 | 70 | 70 | 50 | 60 | 70 |  |  |  |  |  |  |  |  | 
O=C(O)CCC[n+]1ccc(-c2nccs2)cn1 [Compound A115] | 100 | 70 | 90 | 90 | 100 | 100 | 20 | 60 | 100 |  |  |  |  |  |  |  |  | 
O=S(=O)([O-])CCC[n+]1ccc(-c2nccs2)cn1 [Compound A116] | 100 | 40 | 60 | 60 | 80 | 70 | 20 | 80 | 60 |  |  |  |  |  |  |  |  | 
Cn1cnc(-c2cc[n+](CCCS(=O)(=O)[O-])nc2)n1 [Compound A117] | 40 | 20 | 80 | 70 | 20 | 70 | 30 | 40 | 90 |  |  |  |  |  |  |  |  | 
Cn1cnc(-c2cc[n+](CCOS(=O)(=O)[O-])nc2)n1 [Compound A118] | 50 | 30 | 90 | 90 | 70 | 70 | 30 | 40 | 90 |  |  |  |  |  |  |  |  | 
Cn1cnc(-c2cc[n+](CCCC(=O)O)nc2)n1 [Compound A119] | 100 | 50 | 90 | 80 | 90 | 80 | 30 | 30 | 100 |  |  |  |  |  |  |  |  | 
COC(=O)C[n+]1ccc(-c2nccs2)cn1 [Compound A120] | 100 | 50 | 80 | 70 | 90 | 70 | 10 | 0 | 60 |  |  |  |  |  |  |  |  | 
COC(=O)CCC[n+]1ccc(-c2ncn(C)n2)cn1 [Compound A121] | 30 | 10 | 60 | 100 | 50 | 40 | 10 | 10 | 40 |  |  |  |  |  |  |  |  | 
O=C(O)CC[n+]1ccc(-c2cncs2)cn1 [Compound A122] | 90 | 0 | 90 | 30 | 70 | 70 | 30 | 20 | 50 |  |  |  |  |  |  |  |  | 
O=C(O)C[n+]1ccc(-c2nccs2)cn1 [Compound A123] | 0 | 0 | 20 | 10 | 20 | 30 | 10 | 10 | 10 |  |  |  |  |  |  |  |  | 
CCOC(=O)c1coc(-c2cc[n+](CCS(=O)(=O)O)nc2)n1 [Compound A124] |  |  |  |  |  |  |  |  |  | 90 | 30 | 90 | 40 | 80 | 90 | 40 | 40 | 70
CNC(=O)c1coc(-c2cc[n+](CCS(=O)(=O)O)nc2)n1 [Compound A125] |  |  |  |  |  |  |  |  |  | 30 | 10 | 60 | 60 | 40 | 40 | 10 | 40 | 70
CCOC(=O)c1coc(-c2cc[n+](CCC(=O)O)nc2)n1 [Compound A126] | 90 | 70 | 90 | 60 | 90 | 70 | 30 | 60 | 70 |  |  |  |  |  |  |  |  | 
CNC(=O)c1coc(-c2cc[n+](CCC(=O)O)nc2)n1 [Compound A127] | 100 | 100 | 90 | 80 | 70 | 70 | 60 | 20 | 70 |  |  |  |  |  |  |  |  | 
COC(=O)CCC[n+]1ccc(-c2nc(C)co2)cn1 [Compound A128] | 90 | 20 | 90 | 80 | 100 | 70 | 20 | 60 | 90 |  |  |  |  |  |  |  |  | 
CNC(=O)c1oc(-c2cc[n+](CCC(=O)O)nc2)nc1C [Compound A129] | 100 | 70 | 70 | 60 | 90 | 90 | 80 | 60 | 100 |  |  |  |  |  |  |  |  | 
CCOC(=O)c1oc(-c2cc[n+](CCC(=O)O)nc2)nc1C [Compound A130] | 100 | 50 | 60 | 60 | 80 | 100 | 50 | 50 | 30 |  |  |  |  |  |  |  |  | 
CCOC(=O)c1oc(-c2cc[n+](CCC(=O)OC)nc2)nc1C [Compound A131] | 10 | 0 | 30 | 20 | 10 | 10 | 10 | 10 | 20 |  |  |  |  |  |  |  |  | 
